# ChEMBL document CHEMBL3886339, “mGluR4 allosteric potentiators, compositions, and methods of treating neurological dysfunction” (2015)
# Target: Metabotropic glutamate receptor 4 (Homo sapiens, UniProt Q14833)
# Format: functional, cell-based, HEK293
# Sequence of Metabotropic glutamate receptor 4 (Q14833 whole entry): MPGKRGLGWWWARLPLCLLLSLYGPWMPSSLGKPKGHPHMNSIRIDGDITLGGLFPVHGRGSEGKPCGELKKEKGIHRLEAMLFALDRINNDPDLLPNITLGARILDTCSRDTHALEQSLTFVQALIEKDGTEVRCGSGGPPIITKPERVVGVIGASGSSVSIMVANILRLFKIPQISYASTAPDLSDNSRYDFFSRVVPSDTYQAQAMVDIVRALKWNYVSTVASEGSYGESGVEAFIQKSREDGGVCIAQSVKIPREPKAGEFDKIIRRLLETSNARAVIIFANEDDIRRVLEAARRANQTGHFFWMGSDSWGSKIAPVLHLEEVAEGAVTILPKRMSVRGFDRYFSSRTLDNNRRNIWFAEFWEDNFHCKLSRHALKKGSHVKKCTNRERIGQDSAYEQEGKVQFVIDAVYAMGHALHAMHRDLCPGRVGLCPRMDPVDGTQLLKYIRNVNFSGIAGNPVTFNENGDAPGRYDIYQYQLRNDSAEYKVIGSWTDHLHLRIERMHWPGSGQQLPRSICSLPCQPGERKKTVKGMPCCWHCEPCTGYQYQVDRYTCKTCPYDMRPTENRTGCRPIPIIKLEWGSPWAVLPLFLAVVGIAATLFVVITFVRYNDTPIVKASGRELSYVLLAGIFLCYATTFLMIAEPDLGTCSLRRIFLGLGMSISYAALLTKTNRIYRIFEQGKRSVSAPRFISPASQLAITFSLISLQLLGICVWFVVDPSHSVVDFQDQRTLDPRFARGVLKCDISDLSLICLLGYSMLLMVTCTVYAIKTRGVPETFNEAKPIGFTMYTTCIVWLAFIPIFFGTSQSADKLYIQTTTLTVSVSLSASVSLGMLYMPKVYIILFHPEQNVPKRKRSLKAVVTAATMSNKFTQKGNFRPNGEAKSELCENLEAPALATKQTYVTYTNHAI
row,SMILES,EC50
1,Cc1cccc(S(=O)(=O)n2cc(NC(=O)c3ccccn3)cn2)c1,163 nM
2,O=C(Nc1cnn(S(=O)(=O)c2ccc(F)c(Cl)c2)c1)c1ccccn1,138 nM
3,O=C(Nc1cnn(S(=O)(=O)c2ccc(F)c(F)c2)c1)c1nccs1,4160 nM
4,COc1ccc(S(=O)(=O)n2cc(NC(=O)c3ccccn3)cn2)cc1Cl,260 nM
5,Cc1ccc(S(=O)(=O)n2cc(NC(=O)c3nccs3)cn2)cc1C,652 nM
6,Cc1ccc(S(=O)(=O)n2cc(NC(=O)c3ccccn3)cn2)cc1F,137 nM
7,O=C(Nc1cnn(S(=O)(=O)c2ccc(Cl)c(F)c2)c1)c1ccccn1,3910 nM
8,Cc1ccc(S(=O)(=O)n2cc(NC(=O)c3nccs3)cn2)cc1,324 nM
9,O=C(Nc1cnn(S(=O)(=O)c2cc(F)c(F)c(F)c2)c1)c1ccccn1,234 nM
10,Cc1cc(F)ccc1S(=O)(=O)n1cc(NC(=O)c2ccccn2)cn1,2340 nM
11,O=C(Nc1cnn(S(=O)(=O)c2cccc(Cl)c2F)c1)c1ccccn1,5240 nM
12,O=C(Nc1cnn(S(=O)(=O)c2ccc(F)c(F)c2)c1)c1ccccn1,1740 nM

# Other lines, results leading:
row,EC50,SMILES
1,197 nM,O=C(Nc1cnn(S(=O)(=O)c2cc(Cl)ccc2Cl)c1)c1ccccn1
2,1770 nM,O=C(Nc1cnn(S(=O)(=O)c2cc(F)c(F)cc2F)c1)c1ccccn1
3,234 nM,Cc1cccc(S(=O)(=O)n2cc(NC(=O)c3nccs3)cn2)c1
4,9880 nM,Cc1ccc(S(=O)(=O)n2cc(NC(=O)c3ccccn3)cn2)cc1
5,204 nM,O=C(Nc1cnn(S(=O)(=O)c2ccc(Cl)c(Cl)c2)c1)c1ccccn1
6,266 nM,O=C(Nc1cnn(S(=O)(=O)c2ccc(C(F)(F)F)cc2)c1)c1ccccn1
7,2250 nM,O=C(Nc1cnn(S(=O)(=O)c2cc(Cl)ccc2F)c1)c1ccccn1
8,1170 nM,O=C(Nc1cnn(S(=O)(=O)c2cc(F)c(F)cc2Cl)c1)c1ccccn1
9,486 nM,Cc1ccc(S(=O)(=O)n2cc(NC(=O)c3ccccn3)cn2)c(C)c1
10,248 nM,CCc1ccc(S(=O)(=O)n2cc(NC(=O)c3ccccn3)cn2)cc1
11,128 nM,O=C(Nc1cnn(S(=O)(=O)c2ccc(Cl)cc2F)c1)c1ccccn1
12,1620 nM,O=C(Nc1cnn(S(=O)(=O)c2ccc(F)cc2F)c1)c1ccccn1
13,124 nM,Cc1cc(S(=O)(=O)n2cc(NC(=O)c3ccccn3)cn2)ccc1F
14,144 nM,Cc1ccc(S(=O)(=O)n2cc(NC(=O)c3ccccn3)cn2)cc1C
15,151 nM,Cc1cc(S(=O)(=O)n2cc(NC(=O)c3ccccn3)cn2)ccc1Cl
16,170 nM,COc1ccc(S(=O)(=O)n2cc(NC(=O)c3ccccn3)cn2)cc1
17,282 nM,O=C(Nc1cnn(S(=O)(=O)c2ccc(F)c(F)c2F)c1)c1ccccn1
